Test results: ChEMBL document CHEMBL3259804, “Syk inhibitors with high potency in presence of blood” (Bioorg Med Chem Lett, 2014)

Key:
[1] = target: T1, Tyrosine-protein kinase SYK (Homo sapiens, UniProt P43405); assay: Inhibition of Syk in anti IgM-stimulated human Ramos cells assessed as BLNK phosphorylation by cellular assay
[2] = target: T1, Tyrosine-protein kinase SYK; assay: Inhibition of Syk in human whole blood assessed as inhibition of P-SLP76 in CD14+ monocytes by flow cytometry
[3] = target: T2, Tyrosine-protein kinase ZAP-70 (Homo sapiens, UniProt P43403); assay: Inhibition of ZAP70 (unknown origin)
T2 sequence (P43403 whole entry): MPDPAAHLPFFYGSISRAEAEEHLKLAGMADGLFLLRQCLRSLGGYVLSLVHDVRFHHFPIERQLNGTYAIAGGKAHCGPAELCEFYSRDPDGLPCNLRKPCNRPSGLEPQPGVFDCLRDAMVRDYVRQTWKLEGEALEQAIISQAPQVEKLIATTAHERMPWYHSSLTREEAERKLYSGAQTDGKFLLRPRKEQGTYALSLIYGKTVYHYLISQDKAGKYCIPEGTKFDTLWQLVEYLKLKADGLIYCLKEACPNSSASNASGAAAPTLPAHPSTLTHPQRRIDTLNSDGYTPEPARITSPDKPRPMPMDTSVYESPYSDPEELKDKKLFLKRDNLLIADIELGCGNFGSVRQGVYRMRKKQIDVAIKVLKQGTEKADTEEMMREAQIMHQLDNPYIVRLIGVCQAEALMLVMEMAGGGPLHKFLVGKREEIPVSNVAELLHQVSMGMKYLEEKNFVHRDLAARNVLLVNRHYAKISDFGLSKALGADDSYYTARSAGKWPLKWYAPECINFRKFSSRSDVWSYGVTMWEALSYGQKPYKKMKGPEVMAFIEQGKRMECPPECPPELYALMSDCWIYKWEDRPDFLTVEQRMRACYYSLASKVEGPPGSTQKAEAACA

[4] = target: Tyrosine-protein kinase Lyn (Homo sapiens, UniProt P07948); assay: Inhibition of Lyn (unknown origin)
[5] = target: Tyrosine-protein kinase JAK2 (Homo sapiens, UniProt O60674); assay: Inhibition of JAK2 (unknown origin)
[6] = target: T1, Tyrosine-protein kinase SYK; assay: Inhibition of Syk (unknown origin) using 4 uM peptide assessed as product formation after 60 mins incubation by microfluidic mobility shift assay
Rattus norvegicus [7] = assay: Dose normalized AUC in Sprague-Dawley rat at 1 mg/kg, iv; type: ADME, organism-based; set-up: dose 1 mg/kg, route intravenous; details: in vivo
[8] = Plasma bioavailability in Sprague-Dawley rat at 1 mg/kg, iv and 3 mg/kg, po; type: ADME, organism-based
Rattus norvegicus [9] = assay: Dose normalized AUC in Sprague-Dawley rat at 3 mg/kg, po; type: ADME, organism-based; set-up: dose 3 mg/kg, route oral; details: in vivo
Bone marrow cell = assay: Inhibition of IL3 dependent proliferation in […] mouse bone marrow cells using [3H]thymidine by liquid scintillation counting; type: functional, cell-based
[10] = target: Voltage-gated inwardly rectifying potassium channel KCNH2 (Homo sapiens, UniProt Q12809); assay: Inhibition of human ERG by Q-patch assay
[11] = Half life in rat liver microsomes; type: ADME; details: liver microsomes
[12] = Volume of distribution at steady state in Sprague-Dawley rat at 1 mg/kg, iv and 3 mg/kg, po; type: ADME, organism-based; details: in vivo, read-out: Vdss
[13] = Clearance in Sprague-Dawley rat at 1 mg/kg, iv and 3 mg/kg, po; type: ADME, organism-based; details: in vivo
[14] = Terminal half life Sprague-Dawley rat at 1 mg/kg, iv and 3 mg/kg, po; type: ADME, organism-based; details: in vivo, read-out: beta t1/2 (converted)
Rattus norvegicus [15] = assay: Cmax/dose in Sprague-Dawley rat at 1 mg/kg, iv and 3 mg/kg, po; type: ADME, organism-based; details: in vivo
[16] = Half life in rat liver S9 fraction assessed as conversion into 5-(1H-indol-7-ylamino)-7-((1R,2S)-2-aminocyclohexylamino)pyrido[4,3-d]pyrimidine-2,4(1H,3H)-dione in presence of NADPH; type: ADME, subcellular
Liver = assay: Half life in rat liver S9 fraction assessed as conversion into 5-(1H-indol-7-ylamino)-7-((1R,2S)-2-aminocyclohexylamino)pyrido[4,3-d]pyrimidine-2,4(1H,3H)-dione; type: ADME, subcellular
[17] = Volume of distribution at steady state in Wistar rat at 3 mg/kg, iv and 10 mg/kg, po; type: ADME, organism-based; details: in vivo, read-out: Vdss
[18] = Terminal half life Wistar rat at 3 mg/kg, iv and 10 mg/kg, po; type: ADME, organism-based; details: in vivo, read-out: beta t1/2 (converted)
[19] = Clearance in Wistar rat at 3 mg/kg, iv and 10 mg/kg, po; type: ADME, organism-based; details: in vivo
Rattus norvegicus [20] = assay: Dose normalized AUC in Wistar rat at 3 mg/kg, iv; type: ADME, organism-based; set-up: dose 3 mg/kg, route intravenous; details: in vivo
Rattus norvegicus [21] = assay: Cmax/dose in Wistar rat at 3 mg/kg, iv and 10 mg/kg, po; type: ADME, organism-based; details: in vivo
Rattus norvegicus [22] = assay: Dose normalized AUC in Wistar rat at 10 mg/kg, po; type: ADME, organism-based; set-up: dose 10 mg/kg, route oral; details: in vivo
[23] = Plasma bioavailability in Wistar rat at 3 mg/kg, iv and 10 mg/kg, po; type: ADME, organism-based
[24] = target: T3, Receptor-type tyrosine-protein kinase FLT3 (Homo sapiens, UniProt P36888); assay: Inhibition of Flt3 (unknown origin)
T3 sequence (P36888 whole entry): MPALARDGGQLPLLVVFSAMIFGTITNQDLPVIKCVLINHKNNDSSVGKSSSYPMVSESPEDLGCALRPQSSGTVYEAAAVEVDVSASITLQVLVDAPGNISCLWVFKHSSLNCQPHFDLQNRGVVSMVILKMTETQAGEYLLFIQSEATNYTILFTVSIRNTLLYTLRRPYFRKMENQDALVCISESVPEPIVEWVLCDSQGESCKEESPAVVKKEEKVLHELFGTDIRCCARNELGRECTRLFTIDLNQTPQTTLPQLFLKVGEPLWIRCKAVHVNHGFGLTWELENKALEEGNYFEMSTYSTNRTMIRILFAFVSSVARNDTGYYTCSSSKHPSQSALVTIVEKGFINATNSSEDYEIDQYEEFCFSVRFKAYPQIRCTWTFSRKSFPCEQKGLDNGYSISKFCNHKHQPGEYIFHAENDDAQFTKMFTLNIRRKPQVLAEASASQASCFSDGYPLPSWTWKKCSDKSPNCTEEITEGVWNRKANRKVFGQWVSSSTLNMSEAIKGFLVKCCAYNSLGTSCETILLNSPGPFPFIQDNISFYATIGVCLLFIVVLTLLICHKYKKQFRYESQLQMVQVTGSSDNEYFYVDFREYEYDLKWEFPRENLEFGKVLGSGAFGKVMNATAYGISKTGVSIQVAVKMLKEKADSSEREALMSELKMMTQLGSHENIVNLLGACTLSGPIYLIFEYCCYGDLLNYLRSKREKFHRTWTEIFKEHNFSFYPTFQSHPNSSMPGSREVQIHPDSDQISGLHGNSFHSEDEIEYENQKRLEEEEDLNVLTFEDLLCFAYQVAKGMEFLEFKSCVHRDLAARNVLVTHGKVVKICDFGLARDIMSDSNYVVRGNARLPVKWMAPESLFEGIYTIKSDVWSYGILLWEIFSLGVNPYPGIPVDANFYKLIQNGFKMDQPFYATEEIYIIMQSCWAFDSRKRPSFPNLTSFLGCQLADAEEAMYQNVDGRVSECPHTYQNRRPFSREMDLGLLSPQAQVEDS

Chain of Tyrosine-protein kinase JAK2 (O60674 whole entry): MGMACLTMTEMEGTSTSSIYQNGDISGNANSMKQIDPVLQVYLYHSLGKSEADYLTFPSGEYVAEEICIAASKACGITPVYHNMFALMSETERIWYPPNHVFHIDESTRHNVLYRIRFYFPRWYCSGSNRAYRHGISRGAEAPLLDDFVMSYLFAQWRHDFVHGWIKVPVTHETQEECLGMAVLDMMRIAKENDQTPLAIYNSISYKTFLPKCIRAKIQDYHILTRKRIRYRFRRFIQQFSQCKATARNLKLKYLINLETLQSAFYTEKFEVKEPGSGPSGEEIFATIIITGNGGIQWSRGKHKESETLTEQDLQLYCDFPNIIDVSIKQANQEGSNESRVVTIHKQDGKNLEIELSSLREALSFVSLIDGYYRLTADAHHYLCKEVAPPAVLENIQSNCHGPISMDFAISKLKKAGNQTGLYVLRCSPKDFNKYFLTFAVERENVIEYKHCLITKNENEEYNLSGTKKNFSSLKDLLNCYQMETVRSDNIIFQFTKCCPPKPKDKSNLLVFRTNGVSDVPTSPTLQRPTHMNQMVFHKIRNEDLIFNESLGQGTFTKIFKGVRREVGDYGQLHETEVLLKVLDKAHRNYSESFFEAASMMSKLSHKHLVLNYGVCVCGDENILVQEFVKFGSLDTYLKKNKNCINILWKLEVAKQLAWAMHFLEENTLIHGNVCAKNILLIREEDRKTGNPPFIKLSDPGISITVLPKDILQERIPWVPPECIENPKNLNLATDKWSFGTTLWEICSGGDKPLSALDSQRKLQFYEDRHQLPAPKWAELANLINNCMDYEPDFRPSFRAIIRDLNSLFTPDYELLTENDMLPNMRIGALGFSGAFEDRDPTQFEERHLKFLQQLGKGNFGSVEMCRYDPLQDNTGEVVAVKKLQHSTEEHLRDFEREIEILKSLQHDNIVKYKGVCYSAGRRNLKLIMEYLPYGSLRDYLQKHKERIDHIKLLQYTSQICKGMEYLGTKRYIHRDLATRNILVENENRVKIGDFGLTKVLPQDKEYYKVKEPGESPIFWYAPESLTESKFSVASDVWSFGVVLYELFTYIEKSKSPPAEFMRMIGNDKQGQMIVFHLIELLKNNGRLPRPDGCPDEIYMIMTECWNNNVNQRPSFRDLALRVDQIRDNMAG
Chain of Tyrosine-protein kinase Lyn (P07948 whole entry): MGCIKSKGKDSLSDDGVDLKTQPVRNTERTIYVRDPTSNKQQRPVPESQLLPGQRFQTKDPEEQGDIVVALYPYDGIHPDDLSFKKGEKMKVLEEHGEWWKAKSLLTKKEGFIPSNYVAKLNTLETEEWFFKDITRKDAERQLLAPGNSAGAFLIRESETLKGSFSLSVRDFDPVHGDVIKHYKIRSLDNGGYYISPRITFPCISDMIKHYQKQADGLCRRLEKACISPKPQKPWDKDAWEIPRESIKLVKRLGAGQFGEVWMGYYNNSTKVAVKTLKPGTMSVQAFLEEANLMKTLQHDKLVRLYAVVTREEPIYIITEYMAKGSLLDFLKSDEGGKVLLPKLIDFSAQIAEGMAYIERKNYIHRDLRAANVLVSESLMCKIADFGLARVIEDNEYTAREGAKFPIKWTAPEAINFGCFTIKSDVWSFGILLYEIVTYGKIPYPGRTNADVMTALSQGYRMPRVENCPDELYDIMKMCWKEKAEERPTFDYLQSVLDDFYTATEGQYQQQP
Chain of Voltage-gated inwardly rectifying potassium channel KCNH2 (Q12809 whole entry): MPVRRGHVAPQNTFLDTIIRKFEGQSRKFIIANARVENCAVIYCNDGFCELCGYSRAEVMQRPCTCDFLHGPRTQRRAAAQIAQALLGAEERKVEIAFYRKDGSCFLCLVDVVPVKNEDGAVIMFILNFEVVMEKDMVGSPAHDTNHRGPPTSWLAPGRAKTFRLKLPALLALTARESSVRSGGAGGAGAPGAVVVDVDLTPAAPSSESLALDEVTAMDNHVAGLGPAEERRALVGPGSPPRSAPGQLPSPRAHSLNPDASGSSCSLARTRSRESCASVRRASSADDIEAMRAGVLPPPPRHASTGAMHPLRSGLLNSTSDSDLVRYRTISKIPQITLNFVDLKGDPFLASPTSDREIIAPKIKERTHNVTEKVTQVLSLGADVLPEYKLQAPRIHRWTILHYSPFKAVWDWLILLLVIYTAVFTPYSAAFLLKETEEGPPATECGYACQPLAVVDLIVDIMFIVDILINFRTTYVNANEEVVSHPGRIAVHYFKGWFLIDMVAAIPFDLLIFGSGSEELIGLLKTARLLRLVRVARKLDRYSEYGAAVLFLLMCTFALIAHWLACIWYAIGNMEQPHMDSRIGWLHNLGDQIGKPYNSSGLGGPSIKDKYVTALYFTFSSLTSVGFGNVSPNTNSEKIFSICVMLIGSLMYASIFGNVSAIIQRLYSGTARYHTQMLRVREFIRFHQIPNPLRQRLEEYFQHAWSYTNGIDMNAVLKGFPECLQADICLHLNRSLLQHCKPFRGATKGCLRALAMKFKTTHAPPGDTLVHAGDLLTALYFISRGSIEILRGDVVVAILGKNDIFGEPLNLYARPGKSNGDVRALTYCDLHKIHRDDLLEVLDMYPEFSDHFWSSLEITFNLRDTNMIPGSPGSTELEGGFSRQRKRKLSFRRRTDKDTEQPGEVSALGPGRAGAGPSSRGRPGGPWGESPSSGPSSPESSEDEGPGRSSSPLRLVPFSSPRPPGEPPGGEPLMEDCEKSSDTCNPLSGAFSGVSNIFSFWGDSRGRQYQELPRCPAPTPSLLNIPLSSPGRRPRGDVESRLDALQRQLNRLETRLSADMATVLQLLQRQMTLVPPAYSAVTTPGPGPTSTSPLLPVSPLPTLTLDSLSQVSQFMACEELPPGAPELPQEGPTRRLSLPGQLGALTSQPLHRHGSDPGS

| IC50 [1] [nM] | IC50 [2] [nM] | IC50 [3] [nM] | IC50 [4] [nM] | IC50 [5] [nM] | IC50 [6] [nM] | half-life [11] [min] | t1/2 [16] [min] | t1/2 (Liver) [min] | Compound | IC50 (Bone marrow cell) [nM] | IC50 [10] [nM] | other results |
| --- | --- | --- | --- | --- | --- | --- | --- | --- | --- | --- | --- | --- |
| 37 | 299 | 47 | 69 | 184 | 1 | 20 | – | – | Cc1c[nH]c2c(Nc3nc(N[C@@H]4CCOC[C@@H]4N)cc4nc[nH]c(=O)c34)cccc12 | 5980 | > 30000 | AUC/dose (Rattus norvegicus [7]): 401 nM·h; bioavailability [8]: 2%; AUC/dose (Rattus norvegicus [9]): 9 nM·h; Vd [12]: 12 L/kg; clearance [13]: 112 mL/min/kg; half-life [14]: 198 min; Cmax/dose (Rattus norvegicus [15]): 2 nM |
| 78 | 376 | 18 | 190 | – | 1 | 22 | > 120 | > 120 | Cn1cc2c(Nc3nc(N[C@@H]4CCOC[C@@H]4N)cc4cc[nH]c(=O)c34)cccc2n1 | 1440 | > 30000 | – |
| 55 | 433 | 340 | 1200 | 680 | 22 | 50 | – | – | N[C@H]1COCC[C@H]1Nc1cc2cc[nH]c(=O)c2c(Nc2cccc3cc[nH]c23)n1 | 3510 | 24900 | Vd [17]: 18 L/kg; half-life [18]: 126 min; clearance [19]: 142 mL/min/kg; AUC/dose (Rattus norvegicus [20]): 299 nM·h; Cmax/dose (Rattus norvegicus [21]): 2 nM; AUC/dose (Rattus norvegicus [22]): 19 nM·h; bioavailability [23]: 7%; IC50 [24]: 20 nM |
| 95 | 430 | 81 | 550 | 300 | 3 | 27 | – | – | Cc1c[nH]c2c(Nc3nc(N[C@@H]4CCCC[C@@H]4N)cc4cc[nH]c(=O)c34)cccc12 | 4940 | – | – |

The next lines start with the compound.

| Compound | IC50 [1] [nM] | IC50 [2] [nM] | IC50 [3] [nM] | IC50 [4] [nM] | IC50 [5] [nM] | IC50 [6] [nM] | half-life [11] [min] | t1/2 [16] [min] | t1/2 (Liver) [min] | IC50 (Bone marrow cell) [nM] | IC50 [10] [nM] | other results |
| --- | --- | --- | --- | --- | --- | --- | --- | --- | --- | --- | --- | --- |
| O=c1[nH]cnc2cc(N[C@@H]3CCCNC3)nc(Nc3cccc4cc[nH]c34)c12 | 378 | 1990 | 3000 | 315 | 950 | 165 | – | – | – | – | – | – |
| Cc1nc2cc(N[C@@H]3CCCC[C@@H]3N)nc(Nc3cccc4c(C)c[nH]c34)c2c(=O)[nH]1 | – | – | > 10000 | > 10000 | > 10000 | 480 | 59 | > 120 | > 120 | – | – | – |
| N[C@H]1CCCC[C@H]1Nc1cc2cc[nH]c(=O)c2c(Nc2cccc3c(Cl)c[nH]c23)n1 | 283 | – | 350 | 1800 | 1230 | 4 | 9 | > 120 | > 120 | – | – | – |
| N[C@H]1CCCC[C@H]1Nc1cc2[nH]c(=O)[nH]c(=O)c2c(Nc2cccc3cc[nH]c23)n1 | – | – | – | – | – | 1900 | – | – | – | – | – | – |
| COc1cc(Nc2ncc(F)c(Nc3ccc4c(n3)NC(=O)C(C)(C)O4)n2)cc(OC)c1OC [R-406] | – | – | – | – | – | – | – | – | – | 147 | – | – |
